Laboratory results published in ChEMBL document CHEMBL5338820, “Discovery and Design of Novel Cyclic Peptides as Specific Inhibitors Targeting CCN2 and Disrupting CCN2/EGFR Interaction for Kidney Fibrosis Treatment” (J Med Chem, 2023).
The source made the active and inactive calls. No cut-off for these calls is given here. Peptide text beside a SMILES is read from it.

How the values were obtained:
[1] = target: T1, CCN family member 2 (Homo sapiens) (UniProt P29279); experiment: Inhibition of recombinant human CCN2 CT domain expressed in human […] cells assessed as reduction in COL1A1 synthesis at 100 uM incubated for 24 hrs by Western blotting assay; format: cell-based
T1 sequence (whole entry): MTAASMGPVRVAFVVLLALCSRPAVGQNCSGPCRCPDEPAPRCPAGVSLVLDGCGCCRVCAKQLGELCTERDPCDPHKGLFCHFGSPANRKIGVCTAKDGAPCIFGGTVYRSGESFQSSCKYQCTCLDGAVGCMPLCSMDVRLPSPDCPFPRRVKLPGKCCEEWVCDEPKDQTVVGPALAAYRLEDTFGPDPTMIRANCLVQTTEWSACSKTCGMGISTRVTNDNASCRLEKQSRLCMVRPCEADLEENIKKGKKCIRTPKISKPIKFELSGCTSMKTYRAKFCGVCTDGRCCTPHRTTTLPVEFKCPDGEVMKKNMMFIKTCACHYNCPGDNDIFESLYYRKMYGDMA

[2] = target: T1, CCN family member 2 (Homo sapiens); experiment: Inhibition of recombinant human CCN2 CT domain expressed in human […] cells assessed as reduction in fibronectin synthesis at 100 uM incubated for 24 hrs by Western blotting assay; format: cell-based
[3] = target: T2, CCN2-EGFR (Homo sapiens) (UniProt P00533+P29279); experiment: Inhibition of His-tagged full length human CCN2 CT domain/human Fc-tagged EGFR protein-protein interaction using TMB as chromogenic substrate at 100 uM incubated for 140 mins by microplate reader assay relative to control
[4] = target: T2, CCN2-EGFR (Homo sapiens); experiment: Inhibition of His-tagged full length human CCN2 FL domain/human Fc-tagged EGFR protein-protein interaction using TMB as chromogenic substrate at 100 uM incubated for 140 mins by microplate reader assay relative to control

T2 sequence (P00533 whole entry, looked up, one chain of several, the tested form may be a part): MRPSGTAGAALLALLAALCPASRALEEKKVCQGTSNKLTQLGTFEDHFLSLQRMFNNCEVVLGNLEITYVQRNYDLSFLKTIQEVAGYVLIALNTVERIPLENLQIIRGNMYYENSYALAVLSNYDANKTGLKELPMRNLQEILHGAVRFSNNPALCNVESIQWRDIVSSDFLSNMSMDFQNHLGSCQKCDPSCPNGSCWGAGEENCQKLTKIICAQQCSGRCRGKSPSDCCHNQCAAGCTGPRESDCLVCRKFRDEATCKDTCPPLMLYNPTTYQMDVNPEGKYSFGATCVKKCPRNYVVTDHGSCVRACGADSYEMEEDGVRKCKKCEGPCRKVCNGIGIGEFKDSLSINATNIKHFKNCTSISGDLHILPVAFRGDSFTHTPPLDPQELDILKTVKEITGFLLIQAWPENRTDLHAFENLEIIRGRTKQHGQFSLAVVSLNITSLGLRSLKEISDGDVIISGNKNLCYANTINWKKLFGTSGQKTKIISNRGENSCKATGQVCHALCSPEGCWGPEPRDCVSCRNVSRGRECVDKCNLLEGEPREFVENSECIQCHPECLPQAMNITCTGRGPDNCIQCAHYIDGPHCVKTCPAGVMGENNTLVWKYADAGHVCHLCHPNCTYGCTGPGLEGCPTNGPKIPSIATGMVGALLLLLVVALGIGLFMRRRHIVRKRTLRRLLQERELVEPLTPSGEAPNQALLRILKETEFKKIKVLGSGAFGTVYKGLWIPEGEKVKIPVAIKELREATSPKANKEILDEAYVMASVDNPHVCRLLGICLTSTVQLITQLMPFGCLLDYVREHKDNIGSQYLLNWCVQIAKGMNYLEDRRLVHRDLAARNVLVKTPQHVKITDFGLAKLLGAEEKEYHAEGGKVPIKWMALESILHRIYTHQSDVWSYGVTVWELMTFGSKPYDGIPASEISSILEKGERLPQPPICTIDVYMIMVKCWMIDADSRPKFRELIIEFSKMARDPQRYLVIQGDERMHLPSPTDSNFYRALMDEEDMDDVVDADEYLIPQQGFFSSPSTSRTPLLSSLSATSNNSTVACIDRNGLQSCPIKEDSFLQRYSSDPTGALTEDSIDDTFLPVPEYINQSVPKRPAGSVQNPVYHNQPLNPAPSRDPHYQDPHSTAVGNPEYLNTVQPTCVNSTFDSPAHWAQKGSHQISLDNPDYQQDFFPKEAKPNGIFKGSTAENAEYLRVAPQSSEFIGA

Compound: C[C@H](N)C(=O)N[C@@H](CC(=O)O)C(=O)N[C@H](C(=O)N[C@H](C(=O)N[C@@H](Cc1c[nH]cn1)C(=O)N[C@@H](Cc1c[nH]cn1)C(=O)N[C@@H](CCCNC(=N)N)C(=O)N1CCC[C@H]1C(=O)N[C@@H](Cc1c[nH]c2ccccc12)C(=O)N[C@H](C(N)=O)[C@@H](C)O)[C@@H](C)O)[C@@H](C)O (H-ADTTHHRPWT-NH2)
- inhibition [1]: Active
- inhibition [2]: Active
- inhibition [3]: 61.9%
- inhibition [4]: 70.6%

Compound: CC(C)C[C@H](NC(=O)[C@H](C)N)C(=O)N[C@@H](C)C(=O)N[C@@H](CC(=O)O)C(=O)N[C@H](C(=O)N[C@H](C(=O)N[C@@H](Cc1c[nH]cn1)C(=O)N[C@@H](Cc1c[nH]cn1)C(=O)N[C@@H](CCCNC(=N)N)C(=O)N1CCC[C@H]1C(=O)N[C@@H](Cc1c[nH]c2ccccc12)C(=O)N[C@H](C(N)=O)[C@@H](C)O)[C@@H](C)O)[C@@H](C)O (H-ALADTTHHRPWT-NH2)
- inhibition [3]: 70.8%
- inhibition [4]: 58.7%

Compound: CC(C)C[C@H](N)C(=O)N[C@@H](C)C(=O)N[C@@H](C)C(=O)N[C@@H](CC(=O)O)C(=O)N[C@H](C(=O)N[C@H](C(=O)N[C@@H](Cc1c[nH]cn1)C(=O)N[C@@H](Cc1c[nH]cn1)C(=O)N[C@@H](CCCNC(=N)N)C(=O)N1CCC[C@H]1C(=O)N[C@@H](Cc1c[nH]c2ccccc12)C(=O)N[C@H](C(N)=O)[C@@H](C)O)[C@@H](C)O)[C@@H](C)O (H-LAADTTHHRPWT-NH2)
- inhibition [3]: 69.5%
- inhibition [4]: 62.8%

Compound: CC(C)C[C@H](NC(=O)[C@@H](N)CC(C)C)C(=O)N[C@@H](C)C(=O)N[C@@H](C)C(=O)N[C@H](C(=O)N[C@H](C(=O)N[C@@H](Cc1c[nH]cn1)C(=O)N[C@@H](Cc1c[nH]cn1)C(=O)N[C@@H](CCCNC(=N)N)C(=O)N1CCC[C@H]1C(=O)N[C@@H](Cc1c[nH]c2ccccc12)C(=O)N[C@H](C(N)=O)[C@@H](C)O)[C@@H](C)O)[C@@H](C)O (H-LLAATTHHRPWT-NH2)
- inhibition [3]: 76%
- inhibition [4]: 61.4%

Compound: CC(C)C[C@H](NC(=O)[C@@H](N)CC(C)C)C(=O)N[C@@H](C)C(=O)N[C@@H](CC(=O)O)C(=O)N[C@@H](C)C(=O)N[C@H](C(=O)N[C@@H](Cc1c[nH]cn1)C(=O)N[C@@H](Cc1c[nH]cn1)C(=O)N[C@@H](CCCNC(=N)N)C(=O)N1CCC[C@H]1C(=O)N[C@@H](Cc1c[nH]c2ccccc12)C(=O)N[C@H](C(N)=O)[C@@H](C)O)[C@@H](C)O (H-LLADATHHRPWT-NH2)
- inhibition [3]: 70.7%
- inhibition [4]: 59%

Compound: CC(C)C[C@H](NC(=O)[C@@H](N)CC(C)C)C(=O)N[C@@H](C)C(=O)N[C@@H](CC(=O)O)C(=O)N[C@H](C(=O)N[C@@H](C)C(=O)N[C@@H](Cc1c[nH]cn1)C(=O)N[C@@H](Cc1c[nH]cn1)C(=O)N[C@@H](CCCNC(=N)N)C(=O)N1CCC[C@H]1C(=O)N[C@@H](Cc1c[nH]c2ccccc12)C(=O)N[C@H](C(N)=O)[C@@H](C)O)[C@@H](C)O (H-LLADTAHHRPWT-NH2)
- inhibition [3]: 44.1%
- inhibition [4]: 36.5%

Compound: CC(C)C[C@H](NC(=O)[C@@H](N)CC(C)C)C(=O)N[C@@H](C)C(=O)N[C@@H](CC(=O)O)C(=O)N[C@H](C(=O)N[C@H](C(=O)N[C@@H](C)C(=O)N[C@@H](Cc1c[nH]cn1)C(=O)N[C@@H](CCCNC(=N)N)C(=O)N1CCC[C@H]1C(=O)N[C@@H](Cc1c[nH]c2ccccc12)C(=O)N[C@H](C(N)=O)[C@@H](C)O)[C@@H](C)O)[C@@H](C)O (H-LLADTTAHRPWT-NH2)
- inhibition [3]: 70.5%
- inhibition [4]: 59.6%

Compound: CC(C)C[C@H](NC(=O)[C@@H](N)CC(C)C)C(=O)N[C@@H](C)C(=O)N[C@@H](CC(=O)O)C(=O)N[C@H](C(=O)N[C@H](C(=O)N[C@@H](Cc1c[nH]cn1)C(=O)N[C@@H](C)C(=O)N[C@@H](CCCNC(=N)N)C(=O)N1CCC[C@H]1C(=O)N[C@@H](Cc1c[nH]c2ccccc12)C(=O)N[C@H](C(N)=O)[C@@H](C)O)[C@@H](C)O)[C@@H](C)O (H-LLADTTHARPWT-NH2)
- inhibition [3]: 65.8%
- inhibition [4]: 48.6%

Compound: CC(C)C[C@H](NC(=O)[C@@H](N)CC(C)C)C(=O)N[C@@H](C)C(=O)N[C@@H](CC(=O)O)C(=O)N[C@H](C(=O)N[C@H](C(=O)N[C@@H](Cc1c[nH]cn1)C(=O)N[C@@H](Cc1c[nH]cn1)C(=O)N[C@@H](C)C(=O)N1CCC[C@H]1C(=O)N[C@@H](Cc1c[nH]c2ccccc12)C(=O)N[C@H](C(N)=O)[C@@H](C)O)[C@@H](C)O)[C@@H](C)O (H-LLADTTHHAPWT-NH2)
- inhibition [3]: 72.5%
- inhibition [4]: 57.8%

Compound: CC(C)C[C@H](NC(=O)[C@@H](N)CC(C)C)C(=O)N[C@@H](C)C(=O)N[C@@H](CC(=O)O)C(=O)N[C@H](C(=O)N[C@H](C(=O)N[C@@H](Cc1c[nH]cn1)C(=O)N[C@@H](Cc1c[nH]cn1)C(=O)N[C@@H](CCCNC(=N)N)C(=O)N[C@@H](C)C(=O)N[C@@H](Cc1c[nH]c2ccccc12)C(=O)N[C@H](C(N)=O)[C@@H](C)O)[C@@H](C)O)[C@@H](C)O (H-LLADTTHHRAWT-NH2)
- inhibition [3]: 65.6%
- inhibition [4]: 56.5%

Compound: CC(C)C[C@H](NC(=O)[C@@H](N)CC(C)C)C(=O)N[C@@H](C)C(=O)N[C@@H](CC(=O)O)C(=O)N[C@H](C(=O)N[C@H](C(=O)N[C@@H](Cc1c[nH]cn1)C(=O)N[C@@H](Cc1c[nH]cn1)C(=O)N[C@@H](CCCNC(=N)N)C(=O)N1CCC[C@H]1C(=O)N[C@@H](C)C(=O)N[C@H](C(N)=O)[C@@H](C)O)[C@@H](C)O)[C@@H](C)O (H-LLADTTHHRPAT-NH2)
- inhibition [3]: 10.7%
- inhibition [4]: 8.7%

Compound: CC(C)C[C@H](NC(=O)[C@@H](N)CC(C)C)C(=O)N[C@@H](C)C(=O)N[C@@H](CC(=O)O)C(=O)N[C@H](C(=O)N[C@H](C(=O)N[C@@H](Cc1c[nH]cn1)C(=O)N[C@@H](Cc1c[nH]cn1)C(=O)N[C@@H](CCCNC(=N)N)C(=O)N1CCC[C@H]1C(=O)N[C@@H](Cc1c[nH]c2ccccc12)C(=O)N[C@@H](C)C(N)=O)[C@@H](C)O)[C@@H](C)O (H-LLADTTHHRPWA-NH2)
- inhibition [3]: 14.2%
- inhibition [4]: 13.5%

Compound: C[C@@H](O)[C@H](N)C(=O)N[C@@H](CCC(=O)O)C(=O)N[C@@H](Cc1c[nH]cn1)C(=O)N[C@@H](CCCNC(=N)N)C(=O)N1CCC[C@H]1C(=O)N[C@@H](Cc1c[nH]c2ccccc12)C(=O)N[C@H](C(N)=O)[C@@H](C)O (H-TEHRPWT-NH2)
- inhibition [3]: 11.5%
- inhibition [4]: 12.5%

Compound: C[C@@H](O)[C@H](N)C(=O)N[C@@H](Cc1c[nH]cn1)C(=O)N[C@@H](CCC(=O)O)C(=O)N[C@@H](CCCNC(=N)N)C(=O)N1CCC[C@H]1C(=O)N[C@@H](Cc1c[nH]c2ccccc12)C(=O)N[C@H](C(N)=O)[C@@H](C)O (H-THERPWT-NH2)
- inhibition [3]: 12.1%
- inhibition [4]: 15.5%

Compound: C[C@@H](O)[C@H](N)C(=O)N[C@@H](Cc1c[nH]cn1)C(=O)N[C@@H](Cc1c[nH]cn1)C(=O)N[C@@H](CCC(=O)O)C(=O)N1CCC[C@H]1C(=O)N[C@@H](Cc1c[nH]c2ccccc12)C(=O)N[C@H](C(N)=O)[C@@H](C)O (H-THHEPWT-NH2)
- inhibition [3]: 61.9%
- inhibition [4]: 12.4%

Compound: C[C@@H](O)[C@H](N)C(=O)N[C@@H](Cc1c[nH]cn1)C(=O)N[C@@H](Cc1c[nH]cn1)C(=O)N[C@@H](CCC(N)=O)C(=O)N1CCC[C@H]1C(=O)N[C@@H](Cc1c[nH]c2ccccc12)C(=O)N[C@H](C(N)=O)[C@@H](C)O (H-THHQPWT-NH2)
- inhibition [3]: 8.1%
- inhibition [4]: 2.1%

Compound: C[C@@H](O)[C@H](N)C(=O)N[C@@H](Cc1c[nH]cn1)C(=O)N[C@@H](Cc1c[nH]cn1)C(=O)N[C@@H](CCCNC(=N)N)C(=O)N[C@@H](CCC(=O)O)C(=O)N[C@@H](Cc1c[nH]c2ccccc12)C(=O)N[C@H](C(N)=O)[C@@H](C)O (H-THHREWT-NH2)
- inhibition [3]: 11.1%
- inhibition [4]: 19.6%

Compound: CC(C)C[C@H](NC(=O)[C@H](CCCNC(=N)N)NC(=O)[C@H](Cc1c[nH]cn1)NC(=O)[C@H](Cc1c[nH]cn1)NC(=O)[C@@H](N)[C@@H](C)O)C(=O)N[C@@H](Cc1c[nH]c2ccccc12)C(=O)N[C@H](C(N)=O)[C@@H](C)O (H-THHRLWT-NH2)
- inhibition [3]: 43.6%
- inhibition [4]: 37.1%

Compound: C[C@@H](O)[C@H](N)C(=O)N[C@@H](Cc1c[nH]cn1)C(=O)N[C@@H](Cc1c[nH]cn1)C(=O)N[C@@H](CCCNC(=N)N)C(=O)N[C@@H](CCC(N)=O)C(=O)N[C@@H](Cc1c[nH]c2ccccc12)C(=O)N[C@H](C(N)=O)[C@@H](C)O (H-THHRQWT-NH2)
- inhibition [3]: 1.2%
- inhibition [4]: 4.5%

Compound: C[C@@H](O)[C@H](N)C(=O)N[C@@H](Cc1c[nH]cn1)C(=O)N[C@@H](CCC(N)=O)C(=O)N[C@@H](CCCNC(=N)N)C(=O)N1CCC[C@H]1C(=O)N[C@@H](Cc1c[nH]c2ccccc12)C(=O)N[C@H](C(N)=O)[C@@H](C)O (H-THQRPWT-NH2)
- inhibition [3]: 10.9%
- inhibition [4]: 5.1%

Compound: C[C@@H](O)[C@H](N)C(=O)N[C@@H](CCC(N)=O)C(=O)N[C@@H](Cc1c[nH]cn1)C(=O)N[C@@H](CCCNC(=N)N)C(=O)N1CCC[C@H]1C(=O)N[C@@H](Cc1c[nH]c2ccccc12)C(=O)N[C@H](C(N)=O)[C@@H](C)O (H-TQHRPWT-NH2)
- inhibition [3]: 11.8%
- inhibition [4]: 6.8%

Compound: C[C@@H](O)[C@@H]1NC(=O)[C@H](Cc2c[nH]c3ccccc23)NC(=O)[C@@H]2CCCN2C(=O)[C@H](CCCNC(=N)N)NC(=O)[C@H](CCCCN)NC(=O)[C@H](Cc2c[nH]cn2)NC(=O)[C@H]([C@@H](C)O)NC1=O (cyclo(HKRPWTT))
- inhibition [3]: 13.2%
- inhibition [4]: 17.4%
